# Data: patent US11186581B2, “2-(1,3-dimethyl-2,6-dioxo-1,2,3,6-tetrahydro-7H-purin-7-yl)-N-(6-(2-hydroxyphenyl)pyridazin-3-yl)acetamide as a Wnt pathway modulator” (Agency for Science, Technology and Research, priority 2017, dated 2021)
# System: HEK293-STF3A cells
# Experiment: STF3A assay (Wnt reporter luciferase)
# Assay type: cell-based
# Conditions: Homo sapiens, 24 h, 1 day of treatment, read-out: IC50 activities on STF3A cells
# Experimental: HEK293-STF cell line was modified from Human embryonic kidney cell line HEK293 transfected with the STF reporter. HEK293-STF3 A cell line was further modified from HEK293-STF cell line to express Wnt3A. This cell line was used to identify compounds that regulate either early or late signalling components of the Wnt pathway. L-Wnt3 A (ATCC, #CRL-2647) cell line was used for providing Wnt3 A conditioned media. The three cell lines were grown in DMEM (Dulbecco's Modified Eagle Medium) with 10% FBS (fetal bovine serum) incubated in 37° C. with 5% CO2.
# 2×10^4 HEK293-STF3A cells in 75 μl culture media were seeded in each well of white 96 well plates (Greiner #655098) and incubated overnight at 37° C. 25 μl serially diluted compound was added to the cells to give final concentration of 50 μM to 1.5 nM. After 1 day of treatment, 100 μl of Steady-Glo® Luciferase Assay reagent (#E2520, Promega) was added to each well and incubated for 10 minutes at room temperature. Luminescence was measured using Tecan Safire2® plate reader.
structure (smiles),measurement,value
"COc1ccccc1-c1ccc(NC(=O)Cn2cnc3c2c(=O)n(C)c(=O)n3C)nn1 [Compound 2, reference compound]",IC50,> 10 µM
